{"source": "paper PMC6945522", "about": "“Promoting tau secretion and propagation by hyperactive p300/CBP via autophagy-lysosomal pathway in tauopathy” (Molecular Neurodegeneration, 2020)", "biological_target": "T1, p300 (Homo sapiens, UniProt Q09472)", "T1 construct": "gene EP300; fragment of p300 (aa 1815–1910), including the PHD, catalytic (HAT), ZZ and TAZ2 domains", "T1 sequence (Q09472 1815-1910)": "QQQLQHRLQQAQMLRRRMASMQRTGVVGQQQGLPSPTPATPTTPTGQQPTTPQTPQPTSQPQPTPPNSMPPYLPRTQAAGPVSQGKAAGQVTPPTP", "experiment": "HTRF tau acetylation assay with purified p300 core domain; confirmed by orthogonal MMBC assay and DSF binding", "assay_type": "biochemical"}
{"smiles": "Cc1cc2c(c(=S)[nH]1)C(=O)O/C2=C\\c1ccco1", "note": "[compound 37892, SMDC37892]", "values": [{"measurement": "IC50", "result": 35.3, "unit": "µM"}]}
